Common to all, as to assay: inhibition of tumour cell growth, NCI panel, 48 h
Experiment [1] relates to BT-549.
For experiment [2], the system named is SR.
Experiment [3] has as its system ACHN.
The test system of experiment [4] is PC-3.
Experiment [5] concerns SN12C.
Experiment [6] deals with HT-29.
The test system of experiment [7] is T47D.
In experiment [8] the test system is TK-10.
The subject of experiment [9] is HL-60.
Experiment [10] deals with EKVX.
The test system of experiment [11] is SK-MEL-28.
In experiment [12] the test system is SK-MEL-5.
For experiment [13], the system named is RXF 393.
Experiment [14] has as its system MDA-MB-231.
The test system of experiment [15] is SNB-19.
Experiment [16] has as its system SF-268.
Experiment [17] deals with HOP-62.
For experiment [18], the system named is A549.
The subject of experiment [19] is OVCAR-8.
For experiment [20], the system named is UACC-62.

Consider 1 compound from ChEMBL document CHEMBL1201862, “PubChem BioAssay data set” (2004).

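Exposure lasted 48 hours, with cells grown in 96-well plates and compounds tested at five concentrations. GI50 = concentration required for 50% inhibition of growth.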 The source made the active and inactive calls. No stated cut-off is given here; in the data, active = GI50 up to about 1.1 µM and inactive = higher.

As to `CCN(CC)CCNc1ccc([N+](=O)[O-])c2nc3ccccc3c(N)c12`, the GI50 in experiment [1] was 791 nM (active); in [2] it was 243 nM (active); in experiment [3], 155 nM (active); in experiment [4] it was 372 nM (active); in experiment [5] it was 441 nM (active); in [6], 359 nM (active). Besides, the GI50 in experiment [7] is 662 nM (active); in [8] it was 685 nM (active); in experiment [9], 297 nM (active); in [10] it was 428 nM (active); in experiment [11] it was 998 nM (active); in experiment [12], 166 nM (active). In addition, the GI50 in [13] is 254 nM (active); in experiment [14], 410 nM (active); in experiment [15], 615 nM (active); in experiment [16] it was 482 nM (active); in experiment [17], 1.48 µM (inactive); in experiment [18], 385 nM (active). The results for the GI50 in experiment [19] and in [20] were 361 nM (active) and 1.01 µM (active), respectively.
